{
  "source": "paper PMC10046369",
  "about": "“Low-Affinity/High-Selectivity Dopamine Transport Inhibition Sufficient to Rescue Cognitive Functions in the Aging Rat” (Biomolecules, 2023)",
  "key": {"ACVRL1": {"target": "ACVRL1 (Homo sapiens, UniProt P37023)", "test": "biochemical", "design": "KINOMEscan competition binding panel, per cent of control", "details": "read-out: %Ctrl @ 2800nM", "how_it_was_run": "(§1)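 Values are expressed as percent of control, calculated as ((test − positive control)/(negative control − positive control)) × 100, so lower numbers mean stronger hits. Binding was measured by KINOMEscan competition assay in a 450-kinase human panel including disease mutants, using the contractor's validated protocol.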"}, "CAMK2B": {"target": "CAMK2B (Homo sapiens, UniProt Q13554)", "test": "biochemical", "design": "KINOMEscan competition binding panel, per cent of control", "details": "read-out: %Ctrl @ 2800nM", "how_it_was_run": "as §1"}, "DDR2": {"target": "DDR2 (Homo sapiens, UniProt Q16832)", "sequence (Q16832 whole entry)": "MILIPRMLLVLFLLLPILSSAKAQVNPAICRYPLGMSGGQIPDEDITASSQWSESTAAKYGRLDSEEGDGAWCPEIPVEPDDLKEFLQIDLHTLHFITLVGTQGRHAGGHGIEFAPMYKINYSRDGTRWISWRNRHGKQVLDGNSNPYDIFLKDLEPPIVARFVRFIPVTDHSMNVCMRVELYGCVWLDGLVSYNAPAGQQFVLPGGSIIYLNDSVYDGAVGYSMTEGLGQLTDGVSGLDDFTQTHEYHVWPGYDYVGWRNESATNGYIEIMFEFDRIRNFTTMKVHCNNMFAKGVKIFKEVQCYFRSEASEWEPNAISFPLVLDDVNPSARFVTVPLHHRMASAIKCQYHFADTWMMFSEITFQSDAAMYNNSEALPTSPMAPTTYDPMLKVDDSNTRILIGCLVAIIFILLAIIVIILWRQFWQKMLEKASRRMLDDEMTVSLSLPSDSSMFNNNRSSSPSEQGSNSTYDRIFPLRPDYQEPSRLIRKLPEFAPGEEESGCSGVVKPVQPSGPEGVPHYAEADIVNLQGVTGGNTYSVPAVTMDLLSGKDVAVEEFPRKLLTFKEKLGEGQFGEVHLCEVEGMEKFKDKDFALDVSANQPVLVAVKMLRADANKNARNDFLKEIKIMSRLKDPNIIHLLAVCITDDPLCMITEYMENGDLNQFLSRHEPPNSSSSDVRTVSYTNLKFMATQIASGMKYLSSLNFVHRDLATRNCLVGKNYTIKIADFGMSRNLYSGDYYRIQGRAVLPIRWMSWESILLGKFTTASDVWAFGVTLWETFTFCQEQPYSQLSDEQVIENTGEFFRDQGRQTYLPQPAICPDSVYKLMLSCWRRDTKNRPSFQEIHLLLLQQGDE", "test": "biochemical", "design": "KINOMEscan competition binding panel, per cent of control", "details": "read-out: %Ctrl @ 2800nM", "how_it_was_run": "as §1"}, "EIF2AK1": {"target": "EIF2AK1 (Homo sapiens, UniProt Q9BQI3)", "sequence (Q9BQI3 whole entry)": "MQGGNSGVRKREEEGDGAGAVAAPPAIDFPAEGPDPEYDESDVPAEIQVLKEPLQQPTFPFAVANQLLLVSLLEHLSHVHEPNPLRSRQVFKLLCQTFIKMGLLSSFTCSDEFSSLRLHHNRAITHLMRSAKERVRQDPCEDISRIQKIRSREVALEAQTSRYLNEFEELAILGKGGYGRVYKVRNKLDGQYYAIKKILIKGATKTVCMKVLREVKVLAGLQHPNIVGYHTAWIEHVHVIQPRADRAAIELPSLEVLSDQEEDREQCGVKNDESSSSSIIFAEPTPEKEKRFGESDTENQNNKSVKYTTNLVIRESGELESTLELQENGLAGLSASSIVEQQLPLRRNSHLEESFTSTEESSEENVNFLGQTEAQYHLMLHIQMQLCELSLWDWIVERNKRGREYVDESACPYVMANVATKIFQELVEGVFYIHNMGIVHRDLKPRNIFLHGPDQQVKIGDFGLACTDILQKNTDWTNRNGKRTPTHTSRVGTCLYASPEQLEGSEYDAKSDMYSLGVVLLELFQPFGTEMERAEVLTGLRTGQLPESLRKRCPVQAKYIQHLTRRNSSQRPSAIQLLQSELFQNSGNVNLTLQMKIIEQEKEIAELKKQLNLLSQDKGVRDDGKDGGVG", "test": "biochemical", "design": "KINOMEscan competition binding panel, per cent of control", "details": "read-out: %Ctrl @ 2800nM", "how_it_was_run": "as §1"}, "EPHB3": {"target": "EPHB3 (Homo sapiens, UniProt P54753)", "test": "biochemical", "design": "KINOMEscan competition binding panel, per cent of control", "details": "read-out: %Ctrl @ 2800nM", "how_it_was_run": "as §1"}, "LIMK1": {"target": "LIMK1 (Homo sapiens, UniProt P53667)", "test": "biochemical", "design": "KINOMEscan competition binding panel, per cent of control", "details": "read-out: %Ctrl @ 2800nM", "how_it_was_run": "as §1"}, "MEK2": {"target": "T1, MEK2 (Homo sapiens, UniProt P36507)", "T1 construct": "gene MAP2K2", "test": "biochemical", "design": "KINOMEscan competition binding panel, per cent of control", "details": "read-out: %Ctrl @ 2800nM", "how_it_was_run": "as §1"}, "MKNK2": {"target": "MKNK2 (Homo sapiens, UniProt Q9HBH9)", "test": "biochemical", "design": "KINOMEscan competition binding panel, per cent of control", "details": "read-out: %Ctrl @ 2800nM", "how_it_was_run": "as §1"}, "MTOR": {"target": "MTOR (Homo sapiens, UniProt P42345)", "test": "biochemical", "design": "KINOMEscan competition binding panel, per cent of control", "details": "read-out: %Ctrl @ 2800nM", "how_it_was_run": "as §1"}, "NEK5": {"target": "NEK5 (Homo sapiens, UniProt Q6P3R8)", "test": "biochemical", "design": "KINOMEscan competition binding panel, per cent of control", "details": "read-out: %Ctrl @ 2800nM", "how_it_was_run": "as §1"}, "PIK3CA(E545K)": {"target": "PIK3CA(E545K) (Homo sapiens, UniProt P42336, E545K)", "test": "biochemical", "design": "KINOMEscan competition binding panel, per cent of control", "details": "read-out: %Ctrl @ 2800nM", "how_it_was_run": "as §1"}, "PIP5K2B": {"target": "T2, PIP5K2B (Homo sapiens, UniProt P78356)", "T2 construct": "gene PIP4K2B", "T2 sequence (P78356 whole entry)": "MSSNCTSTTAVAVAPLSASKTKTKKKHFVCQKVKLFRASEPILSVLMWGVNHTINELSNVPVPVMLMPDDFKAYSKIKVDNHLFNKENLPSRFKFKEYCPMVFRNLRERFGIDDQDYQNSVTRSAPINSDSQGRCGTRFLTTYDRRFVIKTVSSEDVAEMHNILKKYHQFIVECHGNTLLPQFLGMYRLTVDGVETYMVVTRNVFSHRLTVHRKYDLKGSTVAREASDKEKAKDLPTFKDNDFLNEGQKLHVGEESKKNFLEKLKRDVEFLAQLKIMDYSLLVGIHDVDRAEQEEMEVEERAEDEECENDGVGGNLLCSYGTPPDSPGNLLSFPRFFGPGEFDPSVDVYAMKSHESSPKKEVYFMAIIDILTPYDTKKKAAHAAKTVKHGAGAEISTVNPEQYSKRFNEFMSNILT", "test": "biochemical", "design": "KINOMEscan competition binding panel, per cent of control", "details": "read-out: %Ctrl @ 2800nM", "how_it_was_run": "as §1"}, "PKAC-alpha": {"target": "T3, PKAC-alpha (Homo sapiens, UniProt P17612)", "T3 construct": "gene PRKACA", "test": "biochemical", "design": "KINOMEscan competition binding panel, per cent of control", "details": "read-out: %Ctrl @ 2800nM", "how_it_was_run": "as §1"}, "PRKCQ": {"target": "PRKCQ (Homo sapiens, UniProt Q04759)", "test": "biochemical", "design": "KINOMEscan competition binding panel, per cent of control", "details": "read-out: %Ctrl @ 2800nM", "how_it_was_run": "as §1"}, "PRKG2": {"target": "PRKG2 (Homo sapiens, UniProt Q13237)", "sequence (Q13237 whole entry)": "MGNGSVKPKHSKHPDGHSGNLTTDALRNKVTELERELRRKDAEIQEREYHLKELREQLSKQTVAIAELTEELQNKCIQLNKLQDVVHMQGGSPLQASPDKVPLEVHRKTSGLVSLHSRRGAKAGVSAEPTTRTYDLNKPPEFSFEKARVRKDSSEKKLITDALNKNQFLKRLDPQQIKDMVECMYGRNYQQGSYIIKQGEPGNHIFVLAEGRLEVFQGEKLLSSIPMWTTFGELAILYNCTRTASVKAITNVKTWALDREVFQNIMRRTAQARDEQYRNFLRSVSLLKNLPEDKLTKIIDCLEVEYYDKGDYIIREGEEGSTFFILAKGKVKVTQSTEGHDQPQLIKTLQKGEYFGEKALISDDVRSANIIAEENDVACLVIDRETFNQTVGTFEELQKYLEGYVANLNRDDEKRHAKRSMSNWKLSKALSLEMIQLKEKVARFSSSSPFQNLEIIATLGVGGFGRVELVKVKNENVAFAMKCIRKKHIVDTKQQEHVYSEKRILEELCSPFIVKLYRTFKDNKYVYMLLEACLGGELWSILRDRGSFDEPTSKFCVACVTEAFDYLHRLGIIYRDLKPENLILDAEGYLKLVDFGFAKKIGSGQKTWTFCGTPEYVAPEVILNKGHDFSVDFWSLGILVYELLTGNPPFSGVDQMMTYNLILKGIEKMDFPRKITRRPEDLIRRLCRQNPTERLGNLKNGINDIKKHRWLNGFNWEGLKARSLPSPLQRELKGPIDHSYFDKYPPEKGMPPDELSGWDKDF", "test": "biochemical", "design": "KINOMEscan competition binding panel, per cent of control", "details": "read-out: %Ctrl @ 2800nM", "how_it_was_run": "as §1"}, "RAF1": {"target": "RAF1 (Homo sapiens, UniProt P04049)", "sequence (P04049 whole entry)": "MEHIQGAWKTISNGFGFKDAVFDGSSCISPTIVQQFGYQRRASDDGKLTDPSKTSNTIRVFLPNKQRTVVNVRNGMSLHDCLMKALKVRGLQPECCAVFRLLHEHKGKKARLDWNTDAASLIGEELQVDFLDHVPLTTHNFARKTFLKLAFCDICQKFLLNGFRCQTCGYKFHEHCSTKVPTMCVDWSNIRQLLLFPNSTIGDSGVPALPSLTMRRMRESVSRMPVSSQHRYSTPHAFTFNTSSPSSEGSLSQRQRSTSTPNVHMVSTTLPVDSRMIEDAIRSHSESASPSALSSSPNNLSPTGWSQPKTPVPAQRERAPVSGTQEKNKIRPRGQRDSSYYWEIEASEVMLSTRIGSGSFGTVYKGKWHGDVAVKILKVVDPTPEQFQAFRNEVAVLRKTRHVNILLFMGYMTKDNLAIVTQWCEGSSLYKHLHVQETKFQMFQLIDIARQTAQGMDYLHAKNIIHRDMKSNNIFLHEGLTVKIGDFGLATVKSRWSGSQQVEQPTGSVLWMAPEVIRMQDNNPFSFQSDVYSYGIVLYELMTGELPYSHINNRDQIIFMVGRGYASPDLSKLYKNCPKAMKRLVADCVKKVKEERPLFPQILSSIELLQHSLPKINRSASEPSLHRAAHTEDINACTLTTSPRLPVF", "test": "biochemical", "design": "KINOMEscan competition binding panel, per cent of control", "details": "read-out: %Ctrl @ 2800nM", "how_it_was_run": "as §1"}, "[1]": {"target": "T4, RSK3(Kin.Dom.1-N-terminal) (Homo sapiens, UniProt Q15349)", "T4 construct": "gene RPS6KA2; Kin.Dom.1-N-terminal", "test": "biochemical", "design": "KINOMEscan competition binding panel, per cent of control", "details": "read-out: %Ctrl @ 2800nM", "how_it_was_run": "as §1"}, "TNK1": {"target": "TNK1 (Homo sapiens, UniProt Q13470)", "sequence (Q13470 whole entry)": "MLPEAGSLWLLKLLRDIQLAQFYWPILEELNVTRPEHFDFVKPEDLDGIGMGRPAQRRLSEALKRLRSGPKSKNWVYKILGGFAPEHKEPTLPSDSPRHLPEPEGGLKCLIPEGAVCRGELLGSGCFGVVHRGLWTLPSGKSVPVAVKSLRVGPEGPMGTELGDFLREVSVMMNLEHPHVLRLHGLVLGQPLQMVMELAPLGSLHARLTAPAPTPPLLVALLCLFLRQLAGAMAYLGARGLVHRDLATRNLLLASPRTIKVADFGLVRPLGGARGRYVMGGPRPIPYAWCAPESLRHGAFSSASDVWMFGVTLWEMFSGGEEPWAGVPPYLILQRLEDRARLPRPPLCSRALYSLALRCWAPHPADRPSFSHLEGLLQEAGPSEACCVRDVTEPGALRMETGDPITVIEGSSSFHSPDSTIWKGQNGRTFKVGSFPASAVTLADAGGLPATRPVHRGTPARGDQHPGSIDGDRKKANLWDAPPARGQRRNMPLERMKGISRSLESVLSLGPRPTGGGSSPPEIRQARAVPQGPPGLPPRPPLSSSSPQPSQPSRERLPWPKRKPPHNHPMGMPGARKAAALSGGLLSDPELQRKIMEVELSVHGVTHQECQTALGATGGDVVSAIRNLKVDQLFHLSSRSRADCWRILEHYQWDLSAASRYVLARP", "test": "biochemical", "design": "KINOMEscan competition binding panel, per cent of control", "details": "read-out: %Ctrl @ 2800nM", "how_it_was_run": "as §1"}, "MCH2 (h)": {"target": "T5, MCH2 (h) (Homo sapiens, UniProt Q969V1)", "T5 construct": "gene MCHR2", "test": "cell-based", "design": "functional GPCR antagonist screen (Eurofins Cerep), percent inhibition of control agonist response", "details": "antagonist effect, against control agonist; read-out: % Inhibition of Control Agonist Response, Mean"}, "MRGX1 / MRGPRX1 (h)": {"target": "MRGX1 / MRGPRX1 (h) (Homo sapiens, UniProt Q96LB2)", "sequence (Q96LB2 whole entry)": "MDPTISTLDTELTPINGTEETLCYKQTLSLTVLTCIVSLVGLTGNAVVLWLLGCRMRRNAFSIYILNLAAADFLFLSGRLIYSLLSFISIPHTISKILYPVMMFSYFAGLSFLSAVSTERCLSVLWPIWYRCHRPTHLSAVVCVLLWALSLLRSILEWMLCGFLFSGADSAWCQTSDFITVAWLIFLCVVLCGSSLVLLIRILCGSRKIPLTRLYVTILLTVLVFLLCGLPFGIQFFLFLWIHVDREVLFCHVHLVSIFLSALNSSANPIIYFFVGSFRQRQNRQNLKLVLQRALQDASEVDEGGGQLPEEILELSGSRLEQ", "test": "cell-based", "design": "functional GPCR antagonist screen (Eurofins Cerep), percent inhibition of control agonist response", "details": "antagonist effect, against control agonist; read-out: % Inhibition of Control Agonist Response, Mean"}, "NMU1 (h)": {"target": "T6, NMU1 (h) (Homo sapiens, UniProt Q9HB89)", "T6 construct": "gene NMUR1", "T6 sequence (Q9HB89 whole entry)": "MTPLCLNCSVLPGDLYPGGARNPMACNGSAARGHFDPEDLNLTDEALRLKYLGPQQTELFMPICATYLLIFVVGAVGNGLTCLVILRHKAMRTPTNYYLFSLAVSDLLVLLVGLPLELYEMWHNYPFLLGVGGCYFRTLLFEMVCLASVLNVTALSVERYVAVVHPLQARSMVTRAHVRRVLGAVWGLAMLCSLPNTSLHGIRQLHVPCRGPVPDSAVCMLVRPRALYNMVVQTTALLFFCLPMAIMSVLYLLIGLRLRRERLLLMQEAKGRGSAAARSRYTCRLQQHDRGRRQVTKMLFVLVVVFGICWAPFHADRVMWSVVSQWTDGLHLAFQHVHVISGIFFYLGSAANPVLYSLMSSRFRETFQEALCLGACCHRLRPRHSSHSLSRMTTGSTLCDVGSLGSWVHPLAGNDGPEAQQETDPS", "test": "cell-based", "design": "functional GPCR antagonist screen (Eurofins Cerep), percent inhibition of control agonist response", "details": "antagonist effect, against control agonist; read-out: % Inhibition of Control Agonist Response, Mean"}, "NTS1 (NT1) (h)": {"target": "T7, NTS1 (NT1) (h) (Homo sapiens, UniProt P30989)", "T7 construct": "gene NTSR1", "test": "cell-based", "design": "functional GPCR antagonist screen (Eurofins Cerep), percent inhibition of control agonist response", "details": "antagonist effect, against control agonist; read-out: % Inhibition of Control Agonist Response, Mean"}, "PAR1 (h)": {"target": "T8, PAR1 (h) (Homo sapiens, UniProt P25116)", "T8 construct": "gene F2R", "test": "cell-based", "design": "functional GPCR antagonist screen (Eurofins Cerep), percent inhibition of control agonist response", "details": "antagonist effect, against control agonist; read-out: % Inhibition of Control Agonist Response, Mean"}, "PK2 (h)": {"target": "T9, PK2 (h) (Homo sapiens, UniProt Q8NFJ6)", "T9 construct": "gene PROKR2", "test": "cell-based", "design": "functional GPCR antagonist screen (Eurofins Cerep), percent inhibition of control agonist response", "details": "antagonist effect, against control agonist; read-out: % Inhibition of Control Agonist Response, Mean"}, "S1P2 (h)": {"target": "T10, S1P2 (h) (Homo sapiens, UniProt O95136)", "T10 construct": "gene S1PR2", "test": "cell-based", "design": "functional GPCR antagonist screen (Eurofins Cerep), percent inhibition of control agonist response", "details": "antagonist effect, against control agonist; read-out: % Inhibition of Control Agonist Response, Mean"}},
  "data": [
    {"smiles": "[O-][S@@+](Cc1cncs1)C(c1ccccc1)c1ccccc1", "note": "[S-CE-123, (S)-5-((Benzhydrylsulfinyl)Methyl)Thiazole]", "values": [
      {"measurement": "remaining binding at 2.8 µM", "setting": "ACVRL1", "result": 84, "unit": "%"},
      {"measurement": "remaining binding at 2.8 µM", "setting": "CAMK2B", "result": 87, "unit": "%"},
      {"measurement": "remaining binding at 2.8 µM", "setting": "DDR2", "result": 100, "unit": "%"},
      {"measurement": "remaining binding at 2.8 µM", "setting": "EIF2AK1", "result": 100, "unit": "%"},
      {"measurement": "remaining binding at 2.8 µM", "setting": "EPHB3", "result": 100, "unit": "%"},
      {"measurement": "remaining binding at 2.8 µM", "setting": "LIMK1", "result": 98, "unit": "%"},
      {"measurement": "remaining binding at 2.8 µM", "setting": "MEK2", "result": 93, "unit": "%"},
      {"measurement": "remaining binding at 2.8 µM", "setting": "MKNK2", "result": 69, "unit": "%"},
      {"measurement": "remaining binding at 2.8 µM", "setting": "MTOR", "result": 100, "unit": "%"},
      {"measurement": "remaining binding at 2.8 µM", "setting": "NEK5", "result": 90, "unit": "%"},
      {"measurement": "remaining binding at 2.8 µM", "setting": "PIK3CA(E545K)", "result": 82, "unit": "%"},
      {"measurement": "remaining binding at 2.8 µM", "setting": "PIP5K2B", "result": 100, "unit": "%"},
      {"measurement": "remaining binding at 2.8 µM", "setting": "PKAC-alpha", "result": 95, "unit": "%"},
      {"measurement": "remaining binding at 2.8 µM", "setting": "PRKCQ", "result": 100, "unit": "%"},
      {"measurement": "remaining binding at 2.8 µM", "setting": "PRKG2", "result": 99, "unit": "%"},
      {"measurement": "remaining binding at 2.8 µM", "setting": "RAF1", "result": 76, "unit": "%"},
      {"measurement": "remaining binding at 2.8 µM", "setting": "[1]", "result": 100, "unit": "%"},
      {"measurement": "remaining binding at 2.8 µM", "setting": "TNK1", "result": 74, "unit": "%"},
      {"measurement": "inhibition at 2.8 µM", "setting": "MCH2 (h)", "result": 3.1, "unit": "%"},
      {"measurement": "inhibition at 2.8 µM", "setting": "MRGX1 / MRGPRX1 (h)", "result": 4.9, "unit": "%"},
      {"measurement": "inhibition at 2.8 µM", "setting": "NMU1 (h)", "result": -21.3, "unit": "%"},
      {"measurement": "inhibition at 2.8 µM", "setting": "NTS1 (NT1) (h)", "result": -10, "unit": "%"},
      {"measurement": "inhibition at 2.8 µM", "setting": "PAR1 (h)", "result": 2.1, "unit": "%"},
      {"measurement": "inhibition at 2.8 µM", "setting": "PK2 (h)", "result": 7.3, "unit": "%"},
      {"measurement": "inhibition at 2.8 µM", "setting": "S1P2 (h)", "result": -5.2, "unit": "%"}
    ]}
  ]
}
